Literature values in patent US6670393B2, “Carbamate-based cationic lipids” (Promega Biosciences, Inc., priority 1995, dated 2003).

Test system: cells

Q: For CC(C)CCC[C@@H](C)[C@H]1CC[C@H]2[C@@H]3CC=C4C[C@@H](OC(=O)NCCN(C)C)CC[C@]4(C)[C@H]3CC[C@]12C [DC-Chol], which “toxicity to cells (reported)” value is on record?
A: lower toxicity

Q: And the “transfection (reported)” value?
A: more efficient transfection
